Experiment [1] deals with T1, Delta-type opioid receptor (Homo sapiens, UniProt P41143). The experiment is described as follows: Inhibition of [3H]diprenorphine binding to human cloned delta opioid receptor expressed in CHO cells at 10 uM. It counts as cell-based.
Experiment [2] addresses T2, Mu-type opioid receptor (Homo sapiens, UniProt P35372). The experiment is described as follows: Displacement of [3H]diprenorphine from human cloned mu opioid receptor expressed in CHO cells. It counts as cell-based.
Experiment [3] deals with T3, Kappa-type opioid receptor (Homo sapiens, UniProt P41145). As to the kind of experiment: Inhibition of [3H]diprenorphine binding to human cloned kappa opioid receptor expressed in CHO cells at 10 uM. It counts as cell-based.
T3 sequence (P41145 whole entry): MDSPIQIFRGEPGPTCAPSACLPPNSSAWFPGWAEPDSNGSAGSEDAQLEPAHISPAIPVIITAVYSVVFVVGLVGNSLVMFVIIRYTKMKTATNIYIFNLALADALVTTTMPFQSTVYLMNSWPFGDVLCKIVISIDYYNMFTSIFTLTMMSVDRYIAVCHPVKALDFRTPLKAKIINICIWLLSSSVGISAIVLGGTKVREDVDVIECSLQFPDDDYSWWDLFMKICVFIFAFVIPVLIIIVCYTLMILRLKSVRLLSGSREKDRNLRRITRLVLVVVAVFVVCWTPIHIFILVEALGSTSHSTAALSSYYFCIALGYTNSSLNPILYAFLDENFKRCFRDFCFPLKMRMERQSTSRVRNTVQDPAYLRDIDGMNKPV
Experiment [4] concerns the target T2, Mu-type opioid receptor. The experiment is described as follows: Antagonist activity assessed as inhibition of loperamide-stimulated [35S]GTPgammaS binding to human mu opioid receptor expressed in CHO cells. Type of experiment: functional, cell-based.
For experiment [5], the target named is T2, Mu-type opioid receptor. The experiment is described as follows: Inhibition of [3H]diprenorphine binding to human cloned mu opioid receptor expressed in CHO cells at 10 uM. It counts as cell-based.
Experiment [6] concerns the target T1, Delta-type opioid receptor. As to the kind of experiment: Displacement of [3H]diprenorphine from human cloned delta opioid receptor expressed in CHO cells. Type of experiment: cell-based. (In general: In a radioligand displacement assay an active substance lowers the binding of a labelled ligand.)
For experiment [7], the target named is T3, Kappa-type opioid receptor. As to the kind of experiment: Antagonist activity assessed as inhibition of U50488-stimulated [35S]GTP-gamma-S binding to human kappa opioid receptor expressed in CHO cells. It counts as functional, cell-based. (GTPγS is a poorly hydrolysed GTP analogue; its binding reports G protein activation.)
The target in experiment [8] is T3, Kappa-type opioid receptor. As to the kind of experiment: Displacement of [3H]diprenorphine from human cloned kappa opioid receptor expressed in CHO cells. Type of experiment: cell-based.
For experiment [9], the target named is T1, Delta-type opioid receptor. As to the kind of experiment: Antagonist activity assessed as inhibition of BW373U86-stimulated [35S]GTP-gamma-S binding to human delta opioid receptor expressed in CHO cells. It counts as functional, cell-based.

T1 sequence (P41143 whole entry): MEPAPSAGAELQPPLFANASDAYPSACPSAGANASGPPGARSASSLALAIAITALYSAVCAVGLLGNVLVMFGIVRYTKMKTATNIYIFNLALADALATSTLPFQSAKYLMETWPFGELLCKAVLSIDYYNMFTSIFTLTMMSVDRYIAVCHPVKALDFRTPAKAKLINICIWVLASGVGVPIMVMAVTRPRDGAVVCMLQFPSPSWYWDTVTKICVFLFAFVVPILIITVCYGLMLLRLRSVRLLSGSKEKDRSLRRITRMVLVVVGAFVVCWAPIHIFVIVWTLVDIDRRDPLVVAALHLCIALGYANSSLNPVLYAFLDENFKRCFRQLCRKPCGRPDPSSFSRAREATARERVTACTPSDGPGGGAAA
T2 sequence (P35372 whole entry): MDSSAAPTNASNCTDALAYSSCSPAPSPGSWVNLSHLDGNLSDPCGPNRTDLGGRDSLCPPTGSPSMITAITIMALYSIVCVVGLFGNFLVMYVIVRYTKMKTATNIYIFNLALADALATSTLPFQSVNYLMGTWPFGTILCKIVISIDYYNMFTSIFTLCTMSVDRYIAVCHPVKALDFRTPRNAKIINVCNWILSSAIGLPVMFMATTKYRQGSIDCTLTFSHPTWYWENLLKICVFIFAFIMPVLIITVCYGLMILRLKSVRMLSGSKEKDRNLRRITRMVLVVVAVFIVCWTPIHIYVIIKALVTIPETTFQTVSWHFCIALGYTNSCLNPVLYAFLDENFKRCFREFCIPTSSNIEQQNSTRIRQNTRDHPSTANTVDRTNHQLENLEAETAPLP

Turning to `C[C@H]1CN2CCN(Cc3ccc(N(C)C)cc3)C[C@H]2C[C@@]1(C)c1cccc(O)c1`, the figures for the inhibition in experiment [1] and in [3] were 26% and 34%, respectively. For the same compound, the affinity at Mu-type opioid receptor [2] corresponds to a Ki of 750 nM. In addition, on Mu-type opioid receptor [4], the IC50 (in general, the concentration needed to halve the response being measured) stood at 190 nM.
In the case of `C[C@H]1CN2CCNC[C@H]2C[C@@]1(C)c1cccc(O)c1`, the inhibition (usually the change of the read-out against control, counted positive when it falls) worked out at 35% in experiment [1], 49% at Mu-type opioid receptor [5] and 46% in experiment [3].
`C[C@H]1CN2C[C@H](c3ccccc3)N(Cc3ccccc3)C[C@H]2C[C@@]1(C)c1cccc(C(=O)O)c1`: in experiment [6], affinity was put at a Ki of 2500 nM. Also, the inhibition at Mu-type opioid receptor [5] came out at 44%; in [3], 9%.
As for `C[C@H]1CN2CCN(Cc3ccncc3)C[C@H]2C[C@@]1(C)c1cccc(O)c1`, the Ki (commonly the equilibrium dissociation constant of an inhibitor or competing ligand from its target) in [6] worked out at 1300 nM; at Mu-type opioid receptor [2] it was 15 nM. In experiment [3], the inhibition turned out to be 67%. Also, the IC50 at Mu-type opioid receptor [4] is 18 nM.
For `C[C@H]1CN2CCN(Cc3ccccc3Cl)C[C@H]2C[C@@]1(C)c1cccc(O)c1`, the IC50 came out at 10 nM in experiment [7], 190 nM in experiment [9] and 1.8 nM at Mu-type opioid receptor [4]. The Ki in experiment [6] was determined as 57 nM; in [8], 16 nM; on Mu-type opioid receptor [2], 0.47 nM.
For the compound `C[C@H]1CN2CCN(Cc3ccccc3O)C[C@H]2C[C@@]1(C)c1cccc(O)c1`, the IC50 in experiment [7] was 9.4 nM; in experiment [9] it was 570 nM; on Mu-type opioid receptor [4], 1.6 nM. Moreover, the Ki in [6] worked out at 300 nM; in experiment [8] it was 76 nM; at Mu-type opioid receptor [2], 1.8 nM.
As to `C[C@H]1CN2CCN(C)C[C@H]2C[C@@]1(C)c1cccc(O)c1`, the inhibition in experiment [1] came to 11%; at Mu-type opioid receptor [5], 69%; in [3] it was 60%.
For `COC(=O)c1cccc([C@]2(C)C[C@@H]3CN(Cc4ccccc4)[C@@H](c4ccccc4)CN3C[C@@H]2C)c1` the same measures were 39%, 24% and 6%.
With `C[C@H]1CN2CCN(C(=O)CCc3ccccc3)C[C@H]2C[C@@]1(C)c1cccc(O)c1`, the inhibition constant Ki in experiment [6] was determined as 140 nM; on Mu-type opioid receptor [2], 160 nM. In experiment [3], this compound had an inhibition of 65%. Also, the IC50 on Mu-type opioid receptor [4] came to 78 nM.
Take `C[C@H]1CN2C[C@H](c3ccccc3)N(Cc3ccccc3)C[C@H]2C[C@@]1(C)c1ccccc1`: the inhibition is 26% in experiment [1] and 11% in experiment [3].
For `C[C@H]1CN2CCN(S(C)(=O)=O)C[C@H]2C[C@@]1(C)c1cccc(O)c1`, the inhibition turned out to be 5% in [1], 45% at Mu-type opioid receptor [5] and 14% in experiment [3].
Turning to `CC(=O)N1CCN2C[C@H](C)[C@](C)(c3cccc(O)c3)C[C@@H]2C1`, the inhibition in experiment [1] was 47%; in [3], 36%. Also, on Mu-type opioid receptor [2], the Ki stood at 520 nM.
With `C[C@H]1CN2CCN(S(=O)(=O)c3ccccc3)C[C@H]2C[C@@]1(C)c1cccc(O)c1`, the Ki in experiment [6] was 1700 nM; at Mu-type opioid receptor [2] it was 210 nM. In [3], this compound yielded an inhibition of 34%. Further, on Mu-type opioid receptor [4], the IC50 was 140 nM.
As for `C[C@H]1CN2CCN(Cc3ccnc4ccccc34)C[C@H]2C[C@@]1(C)c1cccc(O)c1`, the inhibition was found to be 28% in [1] and 55% in experiment [3]. Also, affinity on Mu-type opioid receptor [2] was put at a Ki of 88 nM. In addition, the IC50 at Mu-type opioid receptor [4] stood at 80 nM.

(Values after ChEMBL document CHEMBL1137297, “Synthesis and pharmacological evaluation of novel octahydro-1H-pyrido[1,2-a]pyrazine as mu-opioid receptor antagonists” (J Med Chem, 2006).)
